Experimental data: PubChem BioAssay AID1919015 (Molecular Pharmacology Branch, DTP, NCI, 2023)

Test system: OVCAR-5 complex spheroids with HUVEC/MSC, viability, % test/control
Test: Anticancer human tumor OVCAR-5 cell line growth inhibition [AhR];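 further: spheroids exposed to compounds for 7 days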;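 on viability, T/C: 100% = DMSO vehicle control wells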
Conditions: for IC50: curve of first compound; for viability, T/C: stronger effect = lower value
Excerpt: Multicellular complex tumor spheroid response to aryl hydrocarbon receptor antagonists in combination with a variety of drugs and investigational agents in selected tumor cell lines
The current study was undertaken to assess response to aryl hydrocarbon receptor antagonists in combination with standard-of-care drugs and investigational agents in solid tumor complex spheroid models. Complex spheroids include a stromal component modeled by human endothelial cells (HUVEC) and fibroblasts modeled by human mesenchymal stem cells (MSCs). The concentration ranges selected for each drug and investigational agent were based upon clinically achievable concentrations if the clinical Cmax of the agent was known.
Compounds. The drugs and investigational agents: BAY 2416964 (NSC825713), GNF351 (NSC835774), CH-223191 (NSC835775), CPI-455 (NSC825282), aza-TdCyd (NSC777586), decitabine (NSC127716), belinostat (NSC758774), entinostat (NSC756642), pevonedistat (NSC761192), tazemetostat (NSC777109), talazoparib (NSC765396), olaparib (NSC753686), selinexor (NSC780203), nedisertib (M3814, NSC802822), bortezomib (NSC756655), venetoclax (NSC766270), doxorubicin (NSC123127), elimusertib (BAY189344, NSC800525), ceralasertib (AZD6738, NSC777638), TAK-243 (NSC785004), alisertib (NSC759677), etoposide (NSC141540), topotecan (NSC609699), eribulin (NSC707389), gemcitabine (NSC613327), carboplatin (NSC241240), cisplatin (NSC119875), and SN-38 (NSC673596) were obtained from the National Cancer Institute (NCI) Developmental Therapeutics Program Chemical Repository (32). The FDA-approved anticancer drug set is available from the Developmental Therapeutics Program at https://dtp.cancer.gov/organization/dscb/obtaining/available plates.htm. […] The stock solutions were prepared in dimethyl sulfoxide (DMSO, Sigma-Aldrich, St. Louis, MO, cat. D2650), except for the platinum compounds which were prepared in saline (Quality Biological, Gaithersburg, MD, cat. 114-055-101), at 800-fold the tested concentration and stored at -70 degrees C prior to their use. All drugs and investigational agents were tested over a range starting from a high concentration at or near the clinical Cmax and decreasing in half-log increments. If the clinical Cmax for an agent had not been determined, the highest concentration tested was 10 microM (Table 1).
Cell Culture. All cells were maintained in an incubator at 37 degrees C and 5% CO2 with 95% humidity. The PDC lines were cultured according to standard operating procedures established by the NCI PDMR (https://pdmr.cancer.gov). Briefly, all PDCs were thawed and cultured in Matrigel-coated flasks prepared with a working solution of 1X Ham's F-12 nutrient mix, without supplementation (Invitrogen, Waltham, MA, cat. 11765054), 100 U/mL penicillin-streptomycin (Invitrogen, cat. 15140122), and 2.5% Matrigel (Corning Inc., Corning, NY, cat. 354248) for the first three passages. All PDCs were cultured in complete DMEM/F-12 media containing advanced DMEM/F-12 (Invitrogen, cat. 12634028), 4.9% defined fetal bovine serum, heat inactivated (HyClone Laboratories Inc., Logan, UT, cat. SH30070.03HI), 389 ng/mL hydrocortisone (Sigma-Aldrich, cat. H4001), 9.7 ng/mL human EGF recombinant protein (Invitrogen, cat. PHG0313), 23.4 microg/mL adenine (Sigma-Aldrich, cat. A2786), 97.3 U/mL penicillin-streptomycin (Invitrogen, cat. 15140122), 1.9 mM L-glutamine (Invitrogen, cat. 25030081), and 9.7 microM Y-27632 dihydrochloride (Tocris Bioscience, Bristol, United Kingdom, cat. 1254). The PDCs were cultured in complete DMEM/F12 media without 10 microM Y-27632 dihydrochloride for at least two passages prior to the screen. The established cell lines NCI-H1341 and […] were cultured in DMEM/F-12, HEPES (Invitrogen, cat. 11330032), 5% defined fetal bovine serum (HyClone Laboratories Inc., cat. SH30070.03), ITS premix universal culture supplement [insulin (5 microg/mL), transferrin (5 microg/mL), and selenious acid (5 ng/mL)] […]

## CCc1c2c(nc3ccc(O)cc13)-c1cc3c(c(=O)n1C2)COC(=O)[C@]3(O)CC + CC(CO)NC(=O)c1cc(-c2ccc(Cl)cc2)nn(-c2cnn(C)c2)c1=O
Second compound 0.1 µM
  IC50: 6.63 nM
Second compound 0.316 µM
  IC50: 5.74 nM
Second compound 1 µM
  IC50: 7.31 nM
Second compound 3.16 µM
  IC50: 5.58 nM
Second compound 10 µM
  IC50: 10.6 nM
Second compound 0.1 µM, first compound 0.000949 µM
  viability, T/C: 77.5%
Second compound 0.1 µM, first compound 0.003 µM
  viability, T/C: 55.8%
Second compound 0.1 µM, first compound 0.00949 µM
  viability, T/C: 42.6%
Second compound 0.1 µM, first compound 0.03 µM
  viability, T/C: 37.8%
Second compound 0.1 µM, first compound 0.0949 µM
  viability, T/C: 17.8%
Second compound 0.1 µM, first compound 0.3 µM
  viability, T/C: 6.98%
Second compound 0.316 µM, first compound 0.000949 µM
  viability, T/C: 76%
Second compound 0.316 µM, first compound 0.003 µM
  viability, T/C: 54%
Second compound 0.316 µM, first compound 0.00949 µM
  viability, T/C: 43.9%
Second compound 0.316 µM, first compound 0.03 µM
  viability, T/C: 32.8%
Second compound 0.316 µM, first compound 0.0949 µM
  viability, T/C: 18.7%
Second compound 0.316 µM, first compound 0.3 µM
  viability, T/C: 6.72%
Second compound 1 µM, first compound 0.000949 µM
  viability, T/C: 70.5%
Second compound 1 µM, first compound 0.003 µM
  viability, T/C: 54.6%
Second compound 1 µM, first compound 0.00949 µM
  viability, T/C: 49.7%
Second compound 1 µM, first compound 0.03 µM
  viability, T/C: 35.9%
Second compound 1 µM, first compound 0.0949 µM
  viability, T/C: 15.5%
Second compound 1 µM, first compound 0.3 µM
  viability, T/C: 7.35%
Second compound 3.16 µM, first compound 0.000949 µM
  viability, T/C: 56.8%
Second compound 3.16 µM, first compound 0.003 µM
  viability, T/C: 47.6%
Second compound 3.16 µM, first compound 0.00949 µM
  viability, T/C: 48.5%
Second compound 3.16 µM, first compound 0.03 µM
  viability, T/C: 35.5%
Second compound 3.16 µM, first compound 0.0949 µM
  viability, T/C: 14.7%
Second compound 3.16 µM, first compound 0.3 µM
  viability, T/C: 6.85%
Second compound 10 µM, first compound 0.000949 µM
  viability, T/C: 51.7%
Second compound 10 µM, first compound 0.003 µM
  viability, T/C: 51.4%
Second compound 10 µM, first compound 0.00949 µM
  viability, T/C: 57.5%
Second compound 10 µM, first compound 0.03 µM
  viability, T/C: 34.5%
Second compound 10 µM, first compound 0.0949 µM
  viability, T/C: 17.7%
Second compound 10 µM, first compound 0.3 µM
  viability, T/C: 7.22%

## CC1COCCN1c1cc(C2(S(C)(=N)=O)CC2)nc(-c2ccnc3[nH]ccc23)n1 (stereo not given) + CC(CO)NC(=O)c1cc(-c2ccc(Cl)cc2)nn(-c2cnn(C)c2)c1=O
Second compound 0.1 µM
  IC50: 9070 nM
Second compound 0.316 µM
  IC50: 9900 nM
Second compound 1 µM
  IC50: > 10000 nM
Second compound 3.16 µM
  IC50: 8950 nM
Second compound 10 µM
  IC50: 6640 nM
Second compound 0.1 µM, first compound 0.0316 µM
  viability, T/C: 106%
Second compound 0.1 µM, first compound 0.1 µM
  viability, T/C: 105%
Second compound 0.1 µM, first compound 0.316 µM
  viability, T/C: 104%
Second compound 0.1 µM, first compound 1 µM
  viability, T/C: 101%
Second compound 0.1 µM, first compound 3.16 µM
  viability, T/C: 80.9%
Second compound 0.1 µM, first compound 10 µM
  viability, T/C: 47.1%
Second compound 0.316 µM, first compound 0.0316 µM
  viability, T/C: 109%
Second compound 0.316 µM, first compound 0.1 µM
  viability, T/C: 105%
Second compound 0.316 µM, first compound 0.316 µM
  viability, T/C: 107%
Second compound 0.316 µM, first compound 1 µM
  viability, T/C: 108%
Second compound 0.316 µM, first compound 3.16 µM
  viability, T/C: 81.6%
Second compound 0.316 µM, first compound 10 µM
  viability, T/C: 49.7%
Second compound 1 µM, first compound 0.0316 µM
  viability, T/C: 116%
Second compound 1 µM, first compound 0.1 µM
  viability, T/C: 112%
Second compound 1 µM, first compound 0.316 µM
  viability, T/C: 112%
Second compound 1 µM, first compound 1 µM
  viability, T/C: 109%
Second compound 1 µM, first compound 3.16 µM
  viability, T/C: 89.9%
Second compound 1 µM, first compound 10 µM
  viability, T/C: 53%
Second compound 3.16 µM, first compound 0.0316 µM
  viability, T/C: 108%
Second compound 3.16 µM, first compound 0.1 µM
  viability, T/C: 101%
Second compound 3.16 µM, first compound 0.316 µM
  viability, T/C: 100%
Second compound 3.16 µM, first compound 1 µM
  viability, T/C: 93.1%
Second compound 3.16 µM, first compound 3.16 µM
  viability, T/C: 77.2%
Second compound 3.16 µM, first compound 10 µM
  viability, T/C: 46.7%
Second compound 10 µM, first compound 0.0316 µM
  viability, T/C: 96.1%
Second compound 10 µM, first compound 0.1 µM
  viability, T/C: 97.5%
Second compound 10 µM, first compound 0.316 µM
  viability, T/C: 95.4%
Second compound 10 µM, first compound 1 µM
  viability, T/C: 83.8%
Second compound 10 µM, first compound 3.16 µM
  viability, T/C: 61.5%
Second compound 10 µM, first compound 10 µM
  viability, T/C: 43.7%
